This note sets out measurements from patent US20080262228A1, “Metabolites of 5-fluoro-8- quinoline and methods of preparation and uses thereof” (Wyeth, priority 2006, published 2008).

Where a name gives a salt, the structure may show the parent alone.

This data set is described as follows: In vivo metabolism and excretion of [14C]COMPOUND I in male beagle dogs, single oral 3 mg/kg dose. Set-up: species or system dog. The note with it: 3 mg/kg oral; for Source: P, plasma, F, feces. How it is done:
Dose preparation, animal dosing, and specimen collection were performed at Wyeth Research, Collegeville, Pa. The vehicle contained 2% (w/v) polysorbate 80, NF and 0.5% (w/v) methylcellulose (4000 cps) in water. [^14C]COMPOUND I trisuccinate salt (50.25 mg) and non-labeled COMPOUND I trisuccinate salt (331.9 mg) were suspended in 72 mL of the vehicle by grinding with a mortar and a pestle. The target [^14C]COMPOUND I concentration was approximately 3 mg/mL as free base and 48 μCi/mL with a target specific activity of 16 μCi/mg. Three pre- and post-dose aliquots (100 μL) were taken for the determination of radiochemical purity, drug and radioactivity concentrations and specific activity (see below).
Four male beagle dogs, weighing from 9.4 to 11.5 kg at the time of dosing, were from an in-house colony. Non-fasted dogs were given a single 3 mg/kg (approximately 48 μCi/kg) dose of [^14C]COMPOUND I at a volume of 1 mL/kg via intragastric gavage. Animals were provided Purina dog chow and water ad libitum, and were housed individually in metabolic cages.
Blood samples were collected from the jugular vein at 1, 4, 8, 24, 48, 72 and 120 hr after dose administration into tubes containing potassium EDTA as the anticoagulant and then placed on ice. Aliquots of 200 μL were removed and plasma was harvested immediately from the remaining blood by centrifugation at 4° C. Urine samples were collected into tubes on dry ice from 0-24 and 24-48 hr, and then at ambient temperature at 24 hr intervals for 7 days post-dose. Fecal samples were collected at 24 hr intervals for 7 days post-dose at room temperature. Cage rinses were collected daily by rinsing each cage with approximately 500 mL of 30% ethanol in water. The dose aliquots and biological specimens were stored at approximately −70° C. until analysis.
Triplicate aliquots of diluted dose (20 μL), dose fractions (10 μL) and plasma (50 μL), urine (200 μL) and cage wash (500 μL) from individual dogs were analyzed for radioactivity content. The samples were assayed in a Tri-Carb Model 3100TR liquid scintillation counter (Perkin Elmer) using 5 mL of Ultima Gold scintillation cocktail.
Fecal samples from individual dogs were weighed and homogenized in water at a volume-to-weight ratio of about 4:1 with a Silverson sealed-unit homogenizer at ambient temperature. Triplicate aliquots of whole blood (50 μL) and fecal homogenates (approximately 0.2 g) were placed into Combusto-cones with Combusto-pads and allowed to dry overnight. Samples were combusted with a model 307 Tri-Carb Sample Oxidizer, equipped with an Oximate-80 Robotic Automatic Sampler (Perkin Elmer). The liberated ^14CO2 was trapped with Carbo-Sorb® E carbon dioxide absorber, mixed with PermaFluor® E+liquid scintillation cocktail, and counted in a Tri-Carb Model 3100 TR/LL liquid scintillation counter.
Plasma samples were pooled by mixing equal volumes from four animals at each time point (1, 4, 8 and 24 hr). Aliquots of 2.0 mL of pooled plasma were mixed with 2.0 mL of acetonitrile, placed on ice for about 10 min, and then centrifuged at 4° C. The supernatant was transferred to a clean tube. The protein pellets were extracted two more times with 2.0 mL of acetonitrile. The supernatants from precipitation and extraction of each sample were pooled, mixed, and evaporated at 22° C. under nitrogen in a TurboVap LV evaporator (Caliper Life Sciences, Hopkinton, Mass.) to about 0.8 mL. The concentrated extract was centrifuged, the supernatant volume measured and the extraction efficiency was determined by analyzing duplicate 10 μL aliquots for radioactivity concentrations. For metabolite profiling, an aliquot of the supernatant (200 μL) was injected onto the HPLC column as described hereinbelow, and fractions were collected at 20 second intervals into 96-well Lumaplates (Perkin Elmer).

On to `COc1cc(N2CCN(C3CCN(c4ccc(F)c5cccnc45)CC3)CC2)c2ncccc2c1` [COMPOUND I, 5-Fluoro-8-{4-[4-(6-methoxyquinolin-8-yl)piperazin-1-yl]piperidin-1-yl}quinoline], for which the Source result is “P, F”. For the setting “pooled 0-24 hr fecal sample”, the “percent of total fecal radioactivity” value is reported as 1.2%. The “percent of total fecal radioactivity” value (pooled 24-48 hr fecal sample) turned out to be 6.7%. Also, the “percent of total plasma radioactivity” value (pooled plasma, over 24 hr post-dose) is recorded as 71-78%.

Regarding `Oc1cc(N2CCN(C3CCN(c4ccc(F)c5cccnc45)CC3)CC2)c2ncccc2c1` [Metabolite M21, 8-{4-[1-(5-fluoroquinolin-8-yl)piperidin-4-yl]piperazin-1-yl}quinolin-6-ol trihydrochloride], the Source result was “P, F”. Further, the “percent of total fecal radioactivity” value (pooled 0-24 hr fecal sample) turned out to be 79.3%. In addition, for the setting “pooled 24-48 hr fecal sample”, the “percent of total fecal radioactivity” value is given as 60.9%.
